We go through 15 molecules from US6933290B2, “2-{N-(2-amino-3-(heteroaryl or aryl)propionyl)-aminoacyl}-amino}-alkylboronic acid derivatives” (Novartis AG, priority 2001, dated 2005).

The IC50 is the concentration needed to halve the response being measured.

Values joined by “and” are separate entries in the source; they are usually repeats but may differ in a detail not shown here. Identical values can stand only once.

This test addresses T1, chymotrypsin-like activity of the 20S proteasome (Homo sapiens, UniProt P20618+P28074).
T1 construct: purified human placenta 20S proteasome; tissue Diabetes Forschungsinstitut, Düsseldorf, Germany; host or cells: human placenta
In words: Inhibition of the chymotrypsin-like activity of the 20S proteasome (Suc-LLVY-AMC hydrolysis). Format: biochemical. To be noted: purified human placenta 20S proteasome, Suc-LLVY-AMC substrate, read-out: IC50 [μM] (results of one or two experiments). The source says: It is based on the hydrolysis of the fluorogenic peptide Suc-LLVY-AMC (Succinyl-leucine-leucine-vatine-tyrosine-7-amino-4-methyl-coumarin), which is cleaved exclusively at the Y-AMC bond by the 20S proteasome. Hydrolysis of this peptide is accompanied by an increase in fluorescence intensity (λex (excitation wavelength): 355 nm; μem (emission wavelength): 460 nm) due to release of the […] that accompanies diffusion apart of the hydrolysis product Suc-LLVY.
2 μl of a 1 mM solution of a test compound in DMSO (dimethylsulfoxide, 20 μM final concentration in the well) are preincubated for 60 min at room temperature in black 96-well microtiter plates together with a mixture of 1 μl purified human placenta 20S proteasome (Diabetes Forschungsinstitut, DÜsseldorf, Germany; about 100 ng proteasome, depending on the proteasome preparation) and 47 μl buffer-Ca (5 mM CaCl2, 20 mM Tris/HCl (Tris-(hydroxymethyl)-amino-methane hydrochloride) pH 8.0). 3 μl of a 2.67 mM solution of Suc-LLVY-AMC (Bachem, Switzerland) in DMSO (80 μM final concentration in the well) and 47 μl buffer-Ca are mixed and added. The resulting mixture is incubated for 3-24 h at 37° C. If desired, proteolysis of the substrate can be stopped by addition of 50 μl stop solution (100 mM monochloroacetic acid, 130 mM NaOH, 100 mM acetic acid, pH=4.3). The fluorescence is monitored with a FLUOROSKAN ASCENT™ microtiter plate reader.
For each measurement series two control experiments are carried out: • 1.) 0% value: 2 μl DMSO are used in the above described assay instead of 2 μl of a 1 mM solution of a test compound in DMSO and 48 μl buffer-Ca instead of a mixture of 47 μl buffer-Ca and 1 μl purified proteasome. • 2.) 100% value: in the above described assay 2 μl DMSO are used instead of 2 μl of a 1 mM solution of the test compound in DMSO. Calculation [formula]
The IC50 value is defined as that concentration of a compound at which the remaining activity is 50% compared to the […].

Take `COc1ccc(C[C@H](Nc2cccc(-c3ccccc3)c2)C(=O)N[C@H](C(=O)N[C@@H](CC(C)C)B(O)O)C(C)C)cc1OC` [Example 10, (R)-1-{(S)-2-[(S)-2-(Biphenyl-3-ylamino)-3-(3,4-dimethoxy-phenyl)-propionylamino]-3-methyl-butyrylamino}-3-methyl-butylboronic acid]: the IC50 is 0.0029 µM and 0.004 µM.

In the case of `COc1cc(C[C@H](Nc2cccc(C(C)C)c2)C(=O)N[C@@H](C)C(=O)N[C@@H](CC(C)C)B2O[C@@H]3C[C@@H]4C[C@@H](C4(C)C)[C@]3(C)O2)cc(OC)c1OC` [Example 45, (S)-2-(3-Isopropyl-phenylamino)-N-{(S)-1-[(R)-3-methyl-1-((1S,2S,6R,8S)-2,9,9-trimethyl-3,5-dioxa-4-bora-tricyclo[6.1.1.0^2,6]dec-4-yl)-butylcarbamoyl]-ethyl}-3-(3,4,5-trimethoxy-phenyl)-propionamide], the IC50 worked out at 0.0013 µM. Under `COc1ccc(C[C@H](Nc2cccc(-c3ccccc3)c2)C(=O)N[C@H](C(=O)N[C@@H](CC(C)C)B2O[C@@H]3C[C@@H]4C[C@@H](C4(C)C)[C@]3(C)O2)C(C)C)cc1OC` [Example 9, (S)-2-[(S)-2-(Biphenyl-3-ylamino)-3-(3,4-dimethoxy-phenyl)-propionylamino]-3-methyl-N-[(R)-3-methyl-1-((1S,2S,6R,8S)-2,9,9-trimethyl-3,5-dioxa-4-bora-tricyclo[6.1.1.0^2,6]dec-4-yl)-butyl]-butyramide] stands 0.0017 µM and 0.0022 µM; under `COc1cc(C[C@H](Nc2cccc(-c3ccccn3)c2)C(=O)N[C@H](C(=O)N[C@@H](CC(C)C)B2O[C@@H]3C[C@@H]4C[C@@H](C4(C)C)[C@]3(C)O2)C(C)C)cc(OC)c1OC` [Example 13, (S)-3-Methyl-N-[(R)-3-methyl-1-((1S,2S,6R,8S)-2,9,9-trimethyl-3,5-dioxa-4-bora-tricyclo[6.1.1.0^2,6]dec-4-yl)-butyl]-2-[(S)-2-(3-pyridin-2-yl-phenylamino)-3-(3,4,5-trimethoxy-phenyl)-propionylamino]-butyramide], 0.0013 µM; under `COc1ccc(C[C@H](NC(=O)Cc2cccc(Oc3ccccc3)c2)C(=O)N[C@H](C(=O)N[C@@H](CC(C)C)B2O[C@@H]3C[C@@H]4C[C@@H](C4(C)C)[C@]3(C)O2)C(C)C)cc1OC` [Example 25, (S)-2-{(S)-3-(3,4-Dimethoxy-phenyl)-2-[2-(3-phenoxy-phenyl)-acetylamino]-propionylamino}-3-methyl-N-[(R)-3-methyl-1-((1S,2S,6R,8S)-2,9,9-trimethyl-3,5-dioxa-4-bora-tricyclo[6.1.1.0^2,6]dec-4-yl)-butyl]-butyramide], 0.0008 µM. Turning to `COc1cc(C[C@H](NC(=O)Cc2cccc(Oc3ccccc3)c2)C(=O)N[C@H](C(=O)N[C@@H](CC(C)C)B2O[C@@H]3C[C@@H]4C[C@@H](C4(C)C)[C@]3(C)O2)C(C)C)cc(OC)c1OC` [Example 27, (S)-3-Methyl-N-[(R)-3-methyl-1-((1S,2S,6R,8S)-2,9,9-trimethyl-3,5-dioxa-4-bora-tricyclo[6.1.1.0^2,6]dec-4-yl)-butyl]-2-[(S)-2-[2-(3-phenoxy-phenyl)-acetylamino]-3-(3,4,5-trimethoxy-phenyl)-propionylamino]-butyramide], the concentration for half-maximal inhibition (IC50) came to 0.0003 µM. On to `COc1ccc(C[C@H](Nc2cccc(-c3ccccc3)c2)C(=O)N[C@@H](CC(C)C)C(=O)N[C@@H](CC(C)C)B2O[C@@H]3C[C@@H]4C[C@@H](C4(C)C)[C@]3(C)O2)cc1` [Example 35, (S)-2-[(S)-2-(Biphenyl-3-ylamino)-3-(4-methoxy-phenyl)-propionylamino]-4-methyl-pentanoic acid [(R)-3-methyl-1-((1S,2S,6R,8S)-2,9,9-trimethyl-3,5-dioxa-4-bora-tricyclo[6.1.1.0^2,6]dec-4-yl)-butyl]-amide], for which the IC50 stood at 0.0023 µM. Take `COc1cc(C[C@H](Nc2cccc(-c3ccccn3)c2)C(=O)N[C@H](C(=O)N[C@@H](CC(C)C)B(O)O)C(C)C)cc(OC)c1OC` [Example 14, (R)-3-Methyl-1-[(S)-3-methyl-2-[(S)-2-(3-pyridin-2-yl-phenylamino)-3-(3,4,5-trimethoxy-phenyl)-propionylamino]-butyrylamino)-butylboronic acid]: the IC50 was 0.0017 µM.

With `COc1ccc(C[C@H](NC(=O)Cc2cccc(Oc3ccccc3)c2)C(=O)N[C@H](C(=O)N[C@@H](CC(C)C)B2O[C@@H]3C[C@@H]4C[C@@H](C4(C)C)[C@]3(C)O2)C(C)C)c(OC)c1OC` [Example 3, (S)-3-Methyl-N-[(R)-3-methyl-1-((1S,2S,6R,8S)-2,9,9-trimethyl-3,5-dioxa-4-bora-tricyclo[6.1.1.0^2,6]dec-4-yl)-butyl]-2-[(S)-2-[2-(3-phenoxy-phenyl)-acetylamino]-3-(2,3,4-trimethoxy-phenyl)-propionylamino]-butyramide], the IC50 is 0.0017 µM and 0.0014 µM.

Take `COc1ccc(C[C@H](Nc2cccc(-c3ccccc3)c2)C(=O)N[C@@H](CC(C)C)C(=O)N[C@@H](CC(C)C)B2O[C@@H]3C[C@@H]4C[C@@H](C4(C)C)[C@]3(C)O2)cc1OC` [Example 33, (S)-2-[(S)-2-(Biphenyl-3-ylamino)-3-(3,4-dimethoxy-phenyl)-propionylamino]-4-methyl-pentanoic acid [(R)-3-methyl-1-((1S,2S,6R,8S)-2,9,9-trimethyl-3,5-dioxa-4-bora-tricyclo[6.1.1.0^2,6]dec-4-yl)-butyl]-amide]: the IC50 is 0.0026 µM. As to “(R)-1-{(S)-2-[(S)-2-(3-Isopropyl-phenylamino)-3-(3,4,5-trimethoxy-phenyl)-propionylamino]-propionylamino}-3-methyl-butylboronic acid [Example 46]”, the IC50 was determined as 0.0019 µM.

With `COc1ccc(C[C@H](NC(=O)CCc2ccccc2)C(=O)N[C@@H](C)C(=O)N[C@@H](CC(C)C)B(O)O)c(OC)c1OC` [Example 48, (R)-3-Methyl-1-{(S)-2-[(S)-2-(3-phenyl-propionylamino)-3-(2,3,4-trimethoxyphenyl)-propionylamino]-propionylamino}-butylboronic acid], the IC50 worked out at 0.0007 µM. On to `COc1ccc(C[C@H](NC(=O)Cc2cccc(Oc3ccccc3)c2)C(=O)N[C@H](C(=O)N[C@@H](CC(C)C)B(O)O)C(C)C)cc1OC` [Example 26, (R)-1-((S)-2-{(S)-3-(3,4-Dimethoxy-phenyl)-2-[2-(3-phenoxy-phenyl)-acetylamino]-propionylamino}-3-methyl-butyrylamino)-3-methyl-butylboronic acid], for which the IC50 was 0.001 µM. On to `COc1ccc(C[C@H](Nc2cccc(-c3ccccc3)c2)C(=O)N[C@H](C(=O)N[C@@H](Cc2ccccc2)B(O)O)C(C)C)cc1` [Example 52, (R)-1-{(S)-2-[(S)-2-(Biphenyl-3-ylamino)-3-(4-methoxy-phenyl)-propionylamino]-3-methyl-butyrylamino}-2-phenyl-ethylboronic acid], for which the IC50 is 0.005 µM. For `COc1cc(C[C@@H](Nc2cccc(-c3ccccc3)c2)C(=O)N[C@H](C(=O)N[C@@H](CC(C)C)B2O[C@@H]3C[C@@H]4C[C@@H](C4(C)C)[C@]3(C)O2)C(C)C)cc(OC)c1OC` [Example 21, (S)-2-[(R)-2-(Biphenyl-3-ylamino)-3-(3,4,5-trimethoxy-phenyl)-propionylamino]-3-methyl-N-[(R)-3-methyl-1-((1S,2S,6R,8S)-2,9,9-trimethyl-3,5-dioxa-4-bora-tricyclo[6.1.1.0^2]dec-4-yl)-butyl]-butyramide], the IC50 amounted to 0.0015 µM.
